# Source: patent publication US20150366839A1, “Schisantherin A for the treatment of neurodegenerative diseases” (priority 2014, published 2015)
# Experiments:
# Format in all cases: cell-based, Human
# [1] = tested on: Bax and Bcl-2; assay: Bax and Bcl-2 expression in MPP+-treated cells, Western blot
# Experimental: (§1) After treatment, SH-SY5Y cells were washed three times with PBS and then lysis with RIPA lysis buffer containing 1% PMSF and 1% Protease Inhibitor Cocktail and incubated for 30 min on ice. Cell lysates were centrifuged at 12,500 g for 20 min at 4° C. The supernatant was separated and the amount of protein was determined using the BCA protein assay kit (Thermo Scientific Pierce, USA). Protein samples (30 μg) were separated by SDS-PAGE (10% (w/v)) polyacrylamide gel and then transferred to a polyvinylidene difluoride (PVDF) membrane (Bio-Rad, Hercules, Calif.). Subsequently, the membrane was blocked with 5% (v/v) non-fat milk in PBST (PBS containing 0.1% Tween 20) for 1 h at room temperature. The blots were incubated overnight at 4° C. with primary antibodies. After three washes with PBST, the membranes were incubated with horseradish peroxidase-conjugated secondary antibodies (1:2000) in PBST with 5% non-fat milk for 1 h at room temperature. After repeated washes, proteins were visualized with an ECL advanced western blotting detection kit. Photographs of protein bands were taken by a Molecular Imager ChemiDoc XRS (Bio-Rad, Hercules, Calif.). Quantitative assessment of protein bands was done with Gel Doc™ XRS equipped with Quantity One software.
# To investigate whether SchiA has any effect on the expression of Bax and Bcl-2 proteins in MPP^+-induced SH-SY5Y cells, the expression levels of Bax and Bcl-2 were determined by Western blot analysis. SH-SY5Y cells were pretreated with 60 μM SchiA for 12 h before incubating with 2 mM MPP for 36 h. The expression of Bax or Bcl-2 in cell lysates was determined by Western blot analysis. […] In this study, β-actin was shown as an internal control. In FIGS. 15A-B, the Bax/Bcl-2 ratio are expressed as a percentage of that of the control group. ###P<0.005 versus control group; ***P<0.005 versus MPP group.
# [2] = tested on: Akt; assay: p-Akt level after MPP+, Western blot
# Experimental: as §1, with “After three washes with PBST, the membranes were incubated with horseradish peroxidase-conjugated secondary antibodies (1:2000) in PBST with 5% non-fat milk for 1 h at room temperature. After repeated washes, proteins were visualized with an ECL advanced western blotting detection kit. Photographs of protein bands were taken by a Molecular Imager ChemiDoc XRS (Bio-Rad, Hercules, Calif.).” left out
# The inventors also investigated the contribution of the PI3K/Akt pathway in the neuroprotective effects of SchiA. The inventors measured phosphorylation-Akt (p-Akt) levels after pre-treated with 60 μM SchiA for 12 h and then exposed to 2 mM MPP for another 36 h. […] To further validate whether the activation of PI3K/Akt signaling pathway, the inventors determined the blocking effect of PI3K/Akt inhibitor such as AKT inhibitor IV on the in vitro neuroprotective effect of SchiA. […]
# [3] = tested on: CREB; assay: p-CREB, CREB and Bcl-2 time course with SchiA alone, Western blot; conditions: 60 μM alone
# Experimental: as §1, with “Photographs of protein bands were taken by a Molecular Imager ChemiDoc XRS (Bio-Rad, Hercules, Calif.).” left out
# To investigate the effect of SchiA on the activation of the upstream targets of CREB in MPP^+-treated SH-SY5Y cells, the protein levels of p-CREB/CREB and were determined. […]
# [4] = tested on: iNOS; assay: iNOS expression, Western blot
# Experimental: as §1, with “After three washes with PBST, the membranes were incubated with horseradish peroxidase-conjugated secondary antibodies (1:2000) in PBST with 5% non-fat milk for 1 h at room temperature. After repeated washes, proteins were visualized with an ECL advanced western blotting detection kit. Photographs of protein bands were taken by a Molecular Imager ChemiDoc XRS (Bio-Rad, Hercules, Calif.).” left out
# Augmented NO production subsequent to iNOS induction appears to play an important role in the initial phase of 6-OHDA-induced neuro-damage models in vitro and in vivo (Singh, Das et al. 2005; Lin, Uang et al. 2007; Shih, Chen et al. 2011). […] Expression of the total iNOS proteins were determined by Western blot analysis. […] Results of FIGS. 4A-C are expressed as a percentage of relative fluorescent intensity (RFI) of the Control group. ###P<0.005 versus control group; *p<0.05, **p<0.01 and *** p<0.005 versus 6-OHDA group. […]
# [5] = 60 μM 12 h, then 2 mM MPP+ 36 h
structure (smiles),measurement,setting,value
"COc1cc2c(c(OC)c1OC)-c1c(cc3c(c1OC)OCO3)C[C@H](C)[C@](C)(O)[C@H]2OC(=O)c1ccccc1 [SchiA, Schisantherin A]",MPP+-induced down-regulation of Bcl-2 expression,[1]; [5],could inhibit the down-regulation of Bcl-2 expression
same,MPP+-induced increase of the Bax/Bcl-2 ratio,[1]; [5],effectively prevented
same,Bax protein expression,"[1]; 60 μM, compared with control group",did not changed significantly
same,"Bcl-2 expression, compound alone","[1]; 60 μM, without MPP+",increase the expression of Bcl-2
same,MPP+-induced down-regulation of Akt expressions,[2]; [5],inhibited
same,"p-Akt level compared to control group, compound alone","[2]; 60 μM, without MPP+",2.5 fold
same,phosphorylation of CREB compared with 0 h,[3]; after 3 h,about 1.5 fold
same,Bcl-2 expression,[3]; from 3 h to 12 h,induced
same,6-OHDA-induced iNOS expression,"[4]; 60 μM 12 h, then 400 μM 6-OHDA 2 h",reduced the expression of iNOS induced by 6-OHDA significantly
same,"iNOS expression, compound alone","[4]; 60 μM, without 6-OHDA",no obvious influence
